Measurements published in article PMC8058733, “A pain killer without analgesic tolerance designed by co-targeting PSD-95-nNOS interaction and α2-containning GABAARs” (Theranostics, 2021).

Experiments:
α3 subunit of GABAARs = assay: Western blot of GABAAR subunit levels in the spinal dorsal horn; type: in vivo, rat; conditions: SNL rats, (+)-borneol 5 mg/kg/d, i.v., × 11 d
Description: (§1) Western bolt analysis was performed as described previously. Briefly, the dorsal spinal cord (L4 and L5) was dissected from sham or SNL rats and homogenized in 400μl RIPA lysis buffer containing 1 μM pepstatin, 10 μg/ml aprotinin, 10 μg/ml leupeptin, 10 μg/ml and 10 μM phenylmethylsufonyl fluoride (PMSF). After lysis for 30 min in ice, samples were centrifuged at 12,000 g for 15 min. The protein content in each supernatant fraction was determined by using Bradford's solution, and samples containing equivalent amounts of protein were applied to 10% or 15% (10% for GABA(A)α2 and α3, 15% for BDNF) acrylamide denaturing gels (SDS-PAGE). The separated proteins were transferred onto a polyvinylidene fluoride membrane. The primary antibodies were as follows: rabbit anti-GABA(A)α2 (1:500; Millipore AB5948), rabbit anti-GABA(A)α3 (1:500; Millipore AB5594), rabbit anti-BDNF (1:1000; Thermo PA1-18357, RRID:AB_1070634). Internal control was performed using rabbit anti-β-actin (1:1000; Bioss bs-0061R, RRID: AB_10855480). Appropriate horseradish peroxidase-linked secondary antibodies were used for detection by enhanced chemiluminescence (Bio-Rad).

α2 subunit of GABAARs = assay: as above; type: in vivo, rat; conditions: SNL rats, (+)-borneol 5 mg/kg/d, i.v., × 11 d
Description: as §1

[1] = test system: SNL-induced mechanical hyperalgesia; assay: SNL-induced mechanical hyperalgesia, paw withdrawal threshold; type: in vivo, rat; conditions: SNL rats, (+)-borneol 5 mg/kg/d, i.v., 11 consecutive days
Description: Neuropathic pain was induced by segmental spinal nerve ligation (SNL). Animals were anesthetized with isoflurane. After the loss of righting reflex, the animal was fixed in the prone position. The SNL model was prepared as described previously: a median skin incision with about 3-5 cm length in L4-S2 level of the mouse back was made, the muscles next to the vertebrae till the sixth lumbar protruding were separated, the L5/L6 joint protruding on the right side was exposed and excised, and L6 processus transversus was partially split so that the L4-L6 spinal nerves on the right side were exposed. L5 nerve was gently isolated and tightly ligated with 5-0 silk thread. The wound was closed with 4-0 silk thread suture and covered with iodine solution. After nerve ligation, animals with signs of paw clonus or autotomy were excluded from further experiments.
Osmotic minipumps (models 1004 for mouse and 2ML4 for rat; Alzet) and intrathecal cannulas (0.61 mm outer diameter and 0.28 mm inner diameter for mouse, 0.99 mm outer diameter and 0.58 mm inner diameter for rat) were filled with a solution of PBS. Cannulas were inserted into the subarachnoid space through the space between the L5 and L6 vertebrae and the tip of the catheter was implanted at the L5 spinal segmental level.
For rats, the threshold for 50% paw withdrawal (50% PWT) response to mechanical stimulus was assessed through a dynamic plantar apparatus (Ugo Basile, Italy). The 50% PWT refers to that the probability of paw withdrawal response to repeated mechanical stimulus is 50%. Rats were placed individually in a plastic cage (17 × 15 × 15 cm) with a wire mesh bottom which allowed full access to the paws. Behavioral accommodation was allowed for 15-20 min until cage exploration and major grooming activities ceased. A maximal cut-off of 50g/50s was set to prevent tissue damage. To record the PWT in response to mechanical stimulus, each rat was measured five times with a 5-min interval, and the mean value was recorded after excluding maximal and minimum values. The experimental procedures were performed in a double-blind manner.

α1-containing GABAAR = test system: α1-containing GABAAR; design: method as in PMID 15763546; conditions: Xenopus laevis oocytes, high dose; cited from earlier work
α2β3γ2 GABAARs = target: T1, α2β3γ2 GABAARs (Homo sapiens, UniProt P18507+P28472+P47869); assay: Potentiation of GABA-evoked currents, whole-cell patch-clamp in HEK293 cells transiently expressing recombinant GABAARs; type: cell-based; conditions: α2β3γ2, n = 8
T1 construct: Shanghai Genechem Co.,Ltd (γ2 plasmid); host or cells: HEK293
T1 sequence (P47869 29-451): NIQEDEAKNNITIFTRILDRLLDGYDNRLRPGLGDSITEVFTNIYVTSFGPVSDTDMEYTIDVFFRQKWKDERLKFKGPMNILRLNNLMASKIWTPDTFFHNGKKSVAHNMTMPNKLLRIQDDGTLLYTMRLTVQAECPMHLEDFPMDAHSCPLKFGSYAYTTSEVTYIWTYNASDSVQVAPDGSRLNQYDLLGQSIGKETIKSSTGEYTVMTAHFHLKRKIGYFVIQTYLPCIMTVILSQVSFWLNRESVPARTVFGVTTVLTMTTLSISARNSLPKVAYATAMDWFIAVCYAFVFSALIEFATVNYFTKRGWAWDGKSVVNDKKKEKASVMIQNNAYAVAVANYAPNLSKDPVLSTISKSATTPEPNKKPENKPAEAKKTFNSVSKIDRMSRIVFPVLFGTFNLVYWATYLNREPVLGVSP
T1 sequence (P28472 26-473): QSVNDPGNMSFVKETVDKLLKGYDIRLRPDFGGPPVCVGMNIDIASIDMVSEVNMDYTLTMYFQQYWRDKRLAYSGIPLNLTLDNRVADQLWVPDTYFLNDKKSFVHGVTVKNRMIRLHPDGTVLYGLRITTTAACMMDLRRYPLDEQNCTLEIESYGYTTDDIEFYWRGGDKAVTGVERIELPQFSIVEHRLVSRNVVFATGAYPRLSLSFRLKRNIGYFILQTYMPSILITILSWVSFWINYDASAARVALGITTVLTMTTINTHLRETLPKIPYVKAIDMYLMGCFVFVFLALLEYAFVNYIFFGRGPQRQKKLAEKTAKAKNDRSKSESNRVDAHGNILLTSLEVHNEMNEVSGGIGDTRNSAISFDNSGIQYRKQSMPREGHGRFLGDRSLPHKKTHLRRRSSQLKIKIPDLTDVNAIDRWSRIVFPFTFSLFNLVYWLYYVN
T1 sequence (P18507 40-475): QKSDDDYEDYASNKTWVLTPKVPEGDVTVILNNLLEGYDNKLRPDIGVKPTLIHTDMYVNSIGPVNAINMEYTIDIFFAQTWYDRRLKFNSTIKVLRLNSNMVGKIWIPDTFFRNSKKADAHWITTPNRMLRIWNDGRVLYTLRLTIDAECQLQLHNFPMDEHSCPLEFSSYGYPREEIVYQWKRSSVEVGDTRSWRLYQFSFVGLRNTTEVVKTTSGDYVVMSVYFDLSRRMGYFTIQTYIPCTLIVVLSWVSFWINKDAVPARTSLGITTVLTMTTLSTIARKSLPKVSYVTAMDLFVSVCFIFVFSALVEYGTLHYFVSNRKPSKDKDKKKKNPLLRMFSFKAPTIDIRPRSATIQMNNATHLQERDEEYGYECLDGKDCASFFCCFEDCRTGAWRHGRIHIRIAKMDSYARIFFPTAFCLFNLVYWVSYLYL
Description: (§2) The affinities of drugs for α1, α2, α3 and α5 subunits were studied in the HEK293 cells (from FuHeng Biology, Shanghai, China) transiently expressing recombinant GABAARs (α1β2γ2, α2β3γ2, α3β3γ2 and α5β2γ2) as described previously. Briefly, the HEK293 cells were cultured in MEM medium supplemented with 10% FBS (fetal bovine serum, Gibico), 1% L-glutamine (Gibco) and 1% mycillin (Gibco). Before transfection, the cells were subcultured onto a 3.5cm dish at the ratio of 1:2. Then, the plasmids of α1/α2/α3/α5 (Origene), β2/β3 (Origene) and γ2 (Shanghai Genechem Co.,Ltd ) (5μg total DNA, ratio 1:1:2) were transfected using Fugene®HD transfection reagent (Promega). The γ2 subunit contained GFP from IRES (internal ribosomal entry site) and was used as a marker of the successful transfection. Cells were used for electrophysiology recording 18-36 hours after transfection.
(§3) Electrophysiology recordings from HEK293 cells were performed as described previously. Briefly, whole-cell patch-clamp recordings of GABA-evoked currents were made at 30 °C with the holding potential of -60 mV. The internal solution (solution in recording electrodes) contained (in mM): 120 CsCl, 10 EGTA, 10 HEPES, 4 MgCl2, 0.5 GTP, 2 ATP and pH was adjusted to 7.4 with CsOH and the external solution contained (in mM): 150 NaCl, 10 KCl, 2 CaCl2, 1 MgCl, 10 HEPES, 10 Glucose and pH was adjusted to 7.4 with NaOH. ACSF was bubbled continuously with carbogen (95%O2 and 5%CO2). For the recording of GABA-evoked currents, the slides were transferred to a recording chamber, which was perfused with ACSF at a rate of 4 ml/min. The cells were viewed under upright microscopy (Olympus), and GFP-positive cells were selected to record the currents. The interval time between each different dose of GABA was controlled, 3 to 5 minutes to avoid the desensitization of GABAARs.

α3β3γ2 GABAARs = target: T2, α3β3γ2 GABAARs (Homo sapiens, UniProt P18507+P28472+P34903); assay: as above; type: cell-based; conditions: α3β3γ2, n = 8
T2 construct: Shanghai Genechem Co.,Ltd (γ2 plasmid); host or cells: HEK293
T2 sequence (P34903 29-492): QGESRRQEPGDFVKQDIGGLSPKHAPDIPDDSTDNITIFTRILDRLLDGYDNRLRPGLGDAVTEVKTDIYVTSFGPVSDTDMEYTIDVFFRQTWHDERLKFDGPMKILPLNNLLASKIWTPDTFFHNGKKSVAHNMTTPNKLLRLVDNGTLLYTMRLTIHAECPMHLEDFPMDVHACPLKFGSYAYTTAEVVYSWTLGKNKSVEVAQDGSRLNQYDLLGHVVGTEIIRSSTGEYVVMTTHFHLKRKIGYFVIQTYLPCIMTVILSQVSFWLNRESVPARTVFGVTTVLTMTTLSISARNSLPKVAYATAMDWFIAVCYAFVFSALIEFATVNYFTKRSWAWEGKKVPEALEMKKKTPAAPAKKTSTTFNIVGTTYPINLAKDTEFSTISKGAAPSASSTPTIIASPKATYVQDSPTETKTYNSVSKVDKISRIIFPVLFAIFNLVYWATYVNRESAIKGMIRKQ
T2 sequence (P28472 26-473): as the sequence (P28472 26-473) above
T2 sequence (P18507 40-475): as the sequence (P18507 40-475) above
Description: as §2, §3

α1β2γ2 GABAARs = target: T3, α1β2γ2 GABAARs (Homo sapiens, UniProt P14867+P18507+P47870); assay: as above; type: cell-based; conditions: α1β2γ2
T3 construct: Shanghai Genechem Co.,Ltd (γ2 plasmid); host or cells: HEK293
T3 sequence (P14867 28-456): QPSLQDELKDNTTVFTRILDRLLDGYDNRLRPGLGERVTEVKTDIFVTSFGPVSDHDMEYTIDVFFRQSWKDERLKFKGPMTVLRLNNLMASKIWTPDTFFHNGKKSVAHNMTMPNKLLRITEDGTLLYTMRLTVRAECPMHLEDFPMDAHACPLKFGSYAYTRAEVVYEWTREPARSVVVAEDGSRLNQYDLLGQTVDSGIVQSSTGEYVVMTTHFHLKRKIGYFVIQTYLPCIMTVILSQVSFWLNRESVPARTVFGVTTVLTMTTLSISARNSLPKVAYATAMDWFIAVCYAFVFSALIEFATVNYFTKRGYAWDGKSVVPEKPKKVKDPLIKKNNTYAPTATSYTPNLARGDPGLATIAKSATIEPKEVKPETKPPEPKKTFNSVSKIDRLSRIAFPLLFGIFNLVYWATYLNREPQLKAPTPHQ
T3 sequence (P47870 25-512 limits assumed): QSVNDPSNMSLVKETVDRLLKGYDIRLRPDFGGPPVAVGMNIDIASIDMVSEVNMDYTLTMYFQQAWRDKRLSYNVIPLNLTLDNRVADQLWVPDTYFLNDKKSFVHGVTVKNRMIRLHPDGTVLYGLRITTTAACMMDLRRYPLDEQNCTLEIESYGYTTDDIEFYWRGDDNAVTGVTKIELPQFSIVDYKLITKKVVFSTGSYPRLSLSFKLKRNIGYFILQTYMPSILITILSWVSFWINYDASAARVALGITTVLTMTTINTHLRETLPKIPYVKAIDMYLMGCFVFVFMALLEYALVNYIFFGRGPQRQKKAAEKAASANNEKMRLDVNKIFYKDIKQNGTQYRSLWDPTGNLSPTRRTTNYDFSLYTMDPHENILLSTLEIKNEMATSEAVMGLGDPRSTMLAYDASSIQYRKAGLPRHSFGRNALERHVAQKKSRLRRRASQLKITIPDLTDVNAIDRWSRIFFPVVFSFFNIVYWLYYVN
T3 sequence (P18507 40-475): as the sequence (P18507 40-475) above
Description: as §2, §3

PSD-95-nNOS complex = target: T4, PSD-95-nNOS complex (Rattus norvegicus, UniProt P29476); assay: Co-IP of PSD-95-nNOS complex levels in the spinal dorsal horn after SNL; type: in vivo; conditions: SNL rats, (+)-borneol 5 mg/kg/d, i.v., × 3 d
T4 construct: dorsal spinal cord tissues (L4 and L5) were lysed in 400 μl RIPA; from tissue; host or cells: rat dorsal spinal cord (L4 and L5), SNL model
T4 sequence (P29476 whole entry, one chain of several): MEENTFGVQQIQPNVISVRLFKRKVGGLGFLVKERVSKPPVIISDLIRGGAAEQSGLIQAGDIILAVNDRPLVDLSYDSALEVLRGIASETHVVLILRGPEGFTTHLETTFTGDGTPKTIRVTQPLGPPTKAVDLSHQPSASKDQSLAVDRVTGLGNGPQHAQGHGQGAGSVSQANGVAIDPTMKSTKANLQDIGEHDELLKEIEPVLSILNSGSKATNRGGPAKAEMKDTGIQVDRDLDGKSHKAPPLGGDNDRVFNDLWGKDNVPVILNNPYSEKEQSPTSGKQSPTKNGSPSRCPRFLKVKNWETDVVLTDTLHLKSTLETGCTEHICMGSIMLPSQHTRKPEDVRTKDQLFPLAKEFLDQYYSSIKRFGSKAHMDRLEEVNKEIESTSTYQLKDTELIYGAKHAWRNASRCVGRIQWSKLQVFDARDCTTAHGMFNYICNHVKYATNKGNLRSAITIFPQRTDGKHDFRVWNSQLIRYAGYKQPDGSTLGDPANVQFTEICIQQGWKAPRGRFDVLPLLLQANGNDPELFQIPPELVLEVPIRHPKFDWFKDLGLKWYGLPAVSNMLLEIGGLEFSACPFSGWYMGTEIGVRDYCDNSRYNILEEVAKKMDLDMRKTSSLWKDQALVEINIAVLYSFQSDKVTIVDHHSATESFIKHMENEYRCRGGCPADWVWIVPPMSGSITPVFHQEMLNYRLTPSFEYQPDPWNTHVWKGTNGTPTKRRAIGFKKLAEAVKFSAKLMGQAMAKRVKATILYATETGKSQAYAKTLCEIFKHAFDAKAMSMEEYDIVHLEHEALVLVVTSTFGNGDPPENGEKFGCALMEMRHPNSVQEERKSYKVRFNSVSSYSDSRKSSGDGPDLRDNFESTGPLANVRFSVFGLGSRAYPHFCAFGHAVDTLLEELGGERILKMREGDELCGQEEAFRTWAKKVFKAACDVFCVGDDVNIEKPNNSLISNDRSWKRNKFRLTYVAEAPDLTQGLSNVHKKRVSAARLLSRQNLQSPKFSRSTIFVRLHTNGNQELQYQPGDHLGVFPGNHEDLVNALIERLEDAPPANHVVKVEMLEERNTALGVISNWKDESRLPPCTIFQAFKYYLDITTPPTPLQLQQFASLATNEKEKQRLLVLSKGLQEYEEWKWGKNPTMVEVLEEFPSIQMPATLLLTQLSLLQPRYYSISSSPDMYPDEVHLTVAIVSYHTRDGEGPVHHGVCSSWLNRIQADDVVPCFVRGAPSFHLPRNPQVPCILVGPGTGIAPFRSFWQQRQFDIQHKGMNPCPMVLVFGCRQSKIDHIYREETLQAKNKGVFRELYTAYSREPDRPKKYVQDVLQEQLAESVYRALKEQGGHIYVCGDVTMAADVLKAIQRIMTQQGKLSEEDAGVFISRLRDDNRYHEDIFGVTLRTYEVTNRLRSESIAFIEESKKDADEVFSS

[2] = test system: putative excitatory neurons of brain cortex; assay: Potentiation of GABA-evoked currents in acute brain cortex slices; type: cell-based; conditions: Neuron; rat brain cortex slices, n = 12
BDNF = assay: Western blot of BDNF levels in the spinal dorsal horn after SNL; type: in vivo, rat; conditions: SNL rats, (+)-borneol 10 mg/kg, i.v., × 3 d
Description: as §1

locomotor activity = assay: Open field test, locomotor activity; type: in vivo; conditions: mice, (+)-borneol 45 mg/kg, i.v.
Description: The locomotor activity was assessed by the open field test as described previously. The apparatus consisted of a large area composed of plastic, surrounded by walls that were 100 cm high. The floor was 50 × 50 cm for mice; the overall illumination was 25 lux. Each animal was gently placed in the center of the open field, and its behavior was videotaped. The distance the animals travelled was measured in a 5-min session using ANY-maze (Stoelting Co., IL, USA). After each trial, the plate was cleaned with 70% EtOH. No stressor was applied to the animals for at least 12 h before the test.

CC1(C)[C@@H]2CC[C@@]1(C)[C@@H](O)C2 [(+)-borneol]
α3 subunit of GABAARs expression in the SDH (α3 subunit of GABAARs): decreased α2 and α3 subunits of GABAARs expressions | α2 subunit of GABAARs expression in the SDH (α2 subunit of GABAARs): decreased α2 and α3 subunits of GABAARs expressions | Analgesic tolerance, mechanical hyperalgesia [1]: caused analgesic tolerance development rapidly | Modulation of α1-containing GABAAR (α1-containing GABAAR): can positively modulate α1-containing GABAAR expressed in Xenopus laevis oocytes at high dose | Emax (α2β3γ2 GABAARs): 122 ± 11% | Emax (α3β3γ2 GABAARs): 109 ± 6.05% | Effect on GABA-evoked currents of α1-containing GABAAR (in words) (α1β2γ2 GABAARs): no effect on GABA-evoked currents as high as 10 μM | PSD-95-nNOS complex level in the SDH (PSD-95-nNOS complex): increased nNOS-PSD-95 interaction in the SDH significantly | EC50 [2]: 0.4236 ± 0.0014 nM | Emax [2]: 63.1 ± 3.4% | SNL-induced BDNF expression in the SDH (BDNF): significantly decreased SNL-induced BDNF expression in the SDH | Locomotor activity, distance travelled during 5 min (locomotor activity): without BZDs-associated behavioral effects
